Test results taken from publication PMC5412920 (Journal of Clinical Pharmacology, 2016).
Where two headings read alike, the source gives them in different places.

Key:
[1] = format: in vivo, human; conditions: hepatic impairment study; largely below the lower limit of quantification
[2] = format: in vivo, human; conditions: renal impairment study; largely below the lower limit of quantification
[3] = test system: MEK1; conditions: cited from earlier work

- plasma concentrations [1]: < 2 ng/mL
- plasma concentrations [2]: < 2 ng/mL
Compound: Cn1cnc2c(F)c(Nc3ccc(Br)cc3Cl)c(C(N)=O)cc21 [selumetinib amide]
- less active than selumetinib [3]: up to 50 fold
